The test system of one test is PC3 cells. The experiment in a line: NAMPT Cell Proliferation Assay. It counts as cell-based. As to conditions: Homo sapiens, PC-3, 120 h, 5 days incubation, cell viability by Cell Titer Glo. A digest of the protocol: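 IC50 values derive from sigmoidal dose-response fits of percent inhibition of PC3 viability, measured by luminescence after 5 days of compound treatment. Cells (500/well, RPMI containing 10% heat-inactivated FBS) are allowed to attach overnight, and compounds are tested at 10-fold dilutions between 10 μM and 1×10^−5 μM.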

Test [1] has as its target NAMPT (human, recombinant, C-terminally His-tagged) (Homo sapiens, UniProt P43490). Description: Time-Resolved Fluorescence Resonance Energy Transfer (TR-FRET) Binding Assay of NAMPT. As to conditions: without substrates; 6.8 nM NAMPT, 200 nM probe, 3 hours equilibration. A digest of the protocol: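 In a displacement format, the nicotinamide-site tracer at 200 nM competed with test compound for 6.8 nM enzyme detected via 1 nM terbium anti-His antibody; incubation lasted 3 hours at room temperature in 50 mM HEPES pH 7.5, 100 mM NaCl. Normalized 520/495 nm emission ratios gave IC50 values.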

In a further test the target is NAMPT (Homo sapiens, UniProt P43490). Description: TR-FRET Binding Assay of NAMPT with PRPP. As to conditions: with 200 μM PRPP and 2.5 mM ATP; 2 nM NAMPT, 2 nM probe, 16 hours equilibration. A digest of the protocol: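 Substrate-containing variant: 200 μM PRPP plus 2.5 mM ATP are added to 2 nM NAMPT and 2 nM probe, with a 16-hour incubation ahead of TR-FRET reading.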
Sequence of NAMPT (P43490 whole entry): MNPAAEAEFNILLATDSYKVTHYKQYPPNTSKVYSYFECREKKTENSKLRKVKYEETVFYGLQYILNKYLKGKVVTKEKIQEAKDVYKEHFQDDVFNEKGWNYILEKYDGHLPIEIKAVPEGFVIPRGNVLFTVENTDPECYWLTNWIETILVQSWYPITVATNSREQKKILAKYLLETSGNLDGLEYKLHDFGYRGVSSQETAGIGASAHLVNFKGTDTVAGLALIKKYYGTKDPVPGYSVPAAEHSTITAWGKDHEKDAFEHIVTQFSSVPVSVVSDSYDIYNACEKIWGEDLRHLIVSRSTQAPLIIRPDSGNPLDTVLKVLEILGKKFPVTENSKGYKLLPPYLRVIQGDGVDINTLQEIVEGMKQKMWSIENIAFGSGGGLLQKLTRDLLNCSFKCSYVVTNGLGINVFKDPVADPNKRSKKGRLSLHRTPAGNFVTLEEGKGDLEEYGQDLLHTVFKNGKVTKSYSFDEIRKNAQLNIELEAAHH

The structures appear in SMILES notation.

Sequence of NAMPT (human, recombinant, C-terminally His-tagged) (P43490 whole entry): as above

As to `Cn1nccc1C(=O)N1CCC(c2ccc(C(=O)NCc3ccn4ccnc4c3)s2)C1` (stereo not drawn) [Example 799, N-(imidazo[1,2-a]pyridin-7-ylmethyl)-5-{1-[(1-methyl-1H-pyrazol-5-yl)carbonyl]pyrrolidin-3-yl}thiophene-2-carboxamide], the values for the IC50 (in the test on PC3 cells; in test [1]; at NAMPT) were 6.96 nM, 102 nM and 0.406 nM, respectively.
Taken in the same sequence, the figures for `O=C(NCc1ccn2ccnc2c1)Nc1ccc(C2CCN(C(=O)c3cccc(F)c3)CC2)cc1` [Example 720, 1-{4-[1-(3-fluorobenzoyl)piperidin-4-yl]phenyl}-3-(imidazo[1,2-a]pyridin-7-ylmethyl)urea] were 5.82 nM, 36.7 nM and 0.181 nM.
For the molecule `O=C(NCc1ccn2ccnc2c1)c1ccc(C2CCN(C(=O)C3CCCC3)CC2)cc1` [Example 515, 4-[1-(cyclopentylcarbonyl)piperidin-4-yl]-N-(imidazo[1,2-a]pyridin-7-ylmethyl)benzamide], the figures for the IC50 (in the test on PC3 cells; in test [1]; at NAMPT) were 15.8 nM, 180 nM and 0.268 nM, respectively.
Taken in the same sequence, the figures for `Cc1ccc(C(=O)N2CCC(c3ccc(C(=O)NCc4ccn5ccnc5c4)cc3)C2)cc1` (stereo not drawn) [Example 600, N-(imidazo[1,2-a]pyridin-7-ylmethyl)-4-[1-(4-methylbenzoyl)pyrrolidin-3-yl]benzamide] were 110 nM, 510 nM and 0.169 nM.
On to `O=C(NCc1ccn2ccnc2c1)c1ccc(C2CCN(C(=O)c3cncs3)C2)cc1` (stereo not drawn) [Example 586, N-(imidazo[1,2-a]pyridin-7-ylmethyl)-4-[1-(1,3-thiazol-5-ylcarbonyl)pyrrolidin-3-yl]benzamide], for which the values for the IC50 (in the test with PC3 cells; in test [1]; at NAMPT) were 301 nM, 842 nM and 1.09 nM, respectively.
On to `Cn1cc(CC(=O)N(CC2CCCO2)c2ncc(C(=O)NCc3ccc4nccn4c3)s2)cn1` (stereo not drawn) [Example 183, N-(imidazo[1,2-a]pyridin-6-ylmethyl)-2-{[(1-methyl-1H-pyrazol-4-yl)acetyl](tetrahydrofuran-2-ylmethyl)amino}-1,3-thiazole-5-carboxamide], for which the half-maximal inhibitory concentration (IC50) with PC3 cells came to 63 nM; in test [1], 1050 nM; at NAMPT, 1.8 nM.
On the same counts, the results for `O=C(CC1CCCC1)Nc1ccc(NC(=O)NCc2ccn3ncnc3c2)cc1` [Example 564, 2-cyclopentyl-N-(4-{[([1,2,4]triazolo[1,5-a]pyridin-7-ylmethyl)carbamoyl]amino}phenyl)acetamide] are 211 nM, 23.8 nM and 3.43 nM.
On the same counts, the results for `O=C(NCc1ccn2ccnc2c1)c1ccc(C2CCN(C(=O)c3ccc(F)c(F)c3)CC2)cc1` [Example 701, 4-[1-(3,4-difluorobenzoyl)piperidin-4-yl]-N-(imidazo[1,2-a]pyridin-7-ylmethyl)benzamide] are 76.2 nM, 367 nM and 0.856 nM.
On the same counts, the results for `CC(C)Cn1cc(-c2ncc(C(=O)NCc3ccn4ccnc4c3)s2)cn1` [Example 205, N-(imidazo[1,2-a]pyridin-7-ylmethyl)-2-[1-(2-methylpropyl)-1H-pyrazol-4-yl]-1,3-thiazole-5-carboxamide] are 483 nM, 1060 nM and 0.358 nM.
In the case of `O=C(NCc1ccn2ccnc2c1)Nc1ccc(C2=CCN(C(=O)CC3CCOCC3)CC2)cc1F` [Example 439, 1-{2-fluoro-4-[1-(tetrahydro-2H-pyran-4-ylacetyl)-1,2,3,6-tetrahydropyridin-4-yl]phenyl}-3-(imidazo[1,2-a]pyridin-7-ylmethyl)urea], the IC50 in the test with PC3 cells turned out to be 37.5 nM; in test [1], 453 nM; at NAMPT, 0.641 nM.
Turning to `O=C(NCc1ccn2ccnc2c1)c1ccc(C2CCN(C(=O)c3cccc(C(F)(F)F)c3)CC2)cc1` [Example 702, N-(imidazo[1,2-a]pyridin-7-ylmethyl)-4-{1-[3-(trifluoromethyl)benzoyl]piperidin-4-yl}benzamide], the figures for the IC50 (in the test on PC3 cells; in test [1]; on NAMPT) were 88 nM, 568 nM and 1.29 nM, respectively.
`CC(C)(C)C(=O)N1CCC(c2ccc(C(=O)NCc3ccn4ccnc4c3)s2)C1` (stereo not drawn) [Example 787, 5-[1-(2,2-dimethylpropanoyl)pyrrolidin-3-yl]-N-(imidazo[1,2-a]pyridin-7-ylmethyl)thiophene-2-carboxamide]: the IC50 in the test with PC3 cells was determined as 6.75 nM; in test [1], 55 nM; on NAMPT, 0.474 nM.
In the case of `Cn1cccc1C(=O)N1CC(c2ccc(C(=O)NCc3ccn4ccnc4c3)cc2)C1` [Example 656, N-(imidazo[1,2-a]pyridin-7-ylmethyl)-4-{1-[(1-methyl-1H-pyrrol-2-yl)carbonyl]azetidin-3-yl}benzamide], the IC50 was found to be 38.5 nM in the test on PC3 cells, 218 nM in test [1] and 0.738 nM on NAMPT.
Taken in the same sequence, the figures for `CC(C)(C)OC(=O)N1CC[C@H](Oc2ccc(NC(=O)NCc3ccn4ccnc4c3)cc2)C1` [Example 291, tert-butyl (3S)-3-(4-{[(imidazo[1,2-a]pyridin-7-ylmethyl)carbamoyl]amino}phenoxy)pyrrolidine-1-carboxylate] were 26.1 nM, 159 nM and 0.449 nM.
Taken in the same sequence, the figures for `CC(C)C(=O)N1CCC(O)(c2ccc(C(=O)NCc3ccn4ccnc4c3)s2)CC1` [Example 554, 5-[4-hydroxy-1-(2-methylpropanoyl)piperidin-4-yl]-N-(imidazo[1,2-a]pyridin-7-ylmethyl)thiophene-2-carboxamide] were 177 nM, 451 nM and 0.837 nM.
For the molecule `O=C(NCc1ccc2nccn2c1)c1ccc(C2=CCN(C(=O)C3CCOCC3)CC2)cc1` [Example 101, N-(imidazo[1,2-a]pyridin-6-ylmethyl)-4-[1-(tetrahydro-2H-pyran-4-ylcarbonyl)-1,2,3,6-tetrahydropyridin-4-yl]benzamide], the results for the IC50 (with PC3 cells; in test [1]; on NAMPT) were 2.44 nM, 332 nM and 1.73 nM, respectively.
Taken in the same sequence, the figures for `O=C(NCc1ccn2ccnc2c1)c1ccc(O[C@H]2CCN(C(=O)[C@@H]3CCOC3)C2)cc1` [Example 339, N-(imidazo[1,2-a]pyridin-7-ylmethyl)-4-({(3S)-1-[(3R)-tetrahydrofuran-3-ylcarbonyl]pyrrolidin-3-yl}oxy)benzamide] were 9180 nM, greater than 10000 nM and 0.797 nM.
As to `O=C(NCc1ccn2ccnc2c1)c1cnc(C2=CCN(C(=O)C3CCOCC3)CC2)s1` [Example 319, N-(imidazo[1,2-a]pyridin-7-ylmethyl)-2-[1-(tetrahydro-2H-pyran-4-ylcarbonyl)-1,2,3,6-tetrahydropyridin-4-yl]-1,3-thiazole-5-carboxamide], the IC50 in the test with PC3 cells amounted to 29.3 nM; in test [1], 466 nM; on NAMPT, 0.192 nM.
On the same counts, the results for `O=C(NCc1ccn2ccnc2c1)c1ccc(C2CCN(C(=O)[C@H]3CCOC3)CC2)cc1` [Example 308, N-(imidazo[1,2-a]pyridin-7-ylmethyl)-4-{1-[(3S)-tetrahydrofuran-3-ylcarbonyl]piperidin-4-yl}benzamide] are 29.5 nM, 306 nM and 0.169 nM.
Taken in the same sequence, the figures for `O=C(NCc1ccn2ccnc2c1)Nc1ccc(C2CCN(C(=O)C3CCCO3)CC2)cc1` (stereo not drawn) [Example 220, 1-(imidazo[1,2-a]pyridin-7-ylmethyl)-3-{4-[1-(tetrahydrofuran-2-ylcarbonyl)piperidin-4-yl]phenyl}urea] were 5.73 nM, 74.2 nM and 0.278 nM.
With `CC(C)OC(=O)N1CCC(c2ccc(C(=O)NCc3ccn4ccnc4c3)s2)CC1` [Example 570, propan-2-yl-4-{5-[(imidazo[1,2-a]pyridin-7-ylmethyl)carbamoyl]thiophen-2-yl}piperidine-1-carboxylate], the IC50 in the test with PC3 cells was found to be 7.35 nM; in test [1], 70.4 nM; on NAMPT, 0.751 nM.
Consider `CC(C)(O)C(=O)N1CCC(c2ccc(C(=O)NCc3ccn4ccnc4c3)cc2)CC1` [Example 230, 4-[1-(2-hydroxy-2-methylpropanoyl)piperidin-4-yl]-N-(imidazo[1,2-a]pyridin-7-ylmethyl)benzamide], for which the IC50 was found to be 7.2 nM in the test with PC3 cells, 294 nM in test [1] and 0.169 nM on NAMPT.
Turning to `Cc1ncc(CC(=O)N(CC2CCCO2)c2ncc(C(=O)NCc3ccc4nccn4c3)s2)s1` (stereo not drawn) [Example 123, N-(imidazo[1,2-a]pyridin-6-ylmethyl)-2-{[(2-methyl-1,3-thiazol-5-yl)acetyl](tetrahydrofuran-2-ylmethyl)amino}-1,3-thiazole-5-carboxamide], the IC50 in the test on PC3 cells was found to be 7.43 nM; in test [1], 133 nM; on NAMPT it was 2.57 nM.
Taken in the same sequence, the figures for `O=C(Nc1ccc(C(=O)NCC2CCS(=O)(=O)C2)cc1)Nc1ccc2nccn2c1` (stereo not drawn) [Example 24, N-[(1,1-dioxidotetrahydrothiophen-3-yl)methyl]-4-[(imidazo[1,2-a]pyridin-6-ylcarbamoyl)amino]benzamide] were 691 nM, 167 nM and 0.363 nM.

These data come from patent US9187472B2 (AbbVie Inc., priority 2012, dated 2015).
